# Several values for one entry are separate records, joined by “and”; a condition that tells them apart may be missing. Identical values can stand only once.
# How the values were obtained:
# Assay in all cases: NCI one-dose screen
# Type in all cases: cell-based, human
# 786-0 = settings: Renal 786-0, 10 µM single dose
# Method in brief: (§1)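 At 10 μM, a single concentration, compounds were evaluated for antiproliferative effect in the NCI 60-line screen, with growth expressed relative to untreated control cells.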
# ACHN = settings: Renal ACHN, 10 µM single dose
# Method in brief: as §1
# BT-549 = settings: Breast BT-549, 10 µM single dose
# Method in brief: as §1
# CAKI-1 = settings: Renal CAKI-1, 10 µM single dose
# Method in brief: as §1
# CCRF-CEM = settings: Leukemia CCRF-CEM, 10 µM single dose
# Method in brief: as §1
# COLO 205 = settings: Colon COLO 205, 10 µM single dose
# Method in brief: as §1
# DU-145 = settings: Prostate DU-145, 10 µM single dose
# Method in brief: as §1
# EKVX = settings: NSCLC EKVX; for Growth Percent: 10 µM single dose
# Method in brief: (§2)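 Percent growth inhibition, referenced to untreated control cells, was determined after a single 10 μM compound exposure in the NCI 60-cell-line anticancer screen.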
# HCC-2998 = settings: Colon HCC-2998, 10 µM single dose
# Method in brief: as §1
# HCT-116 = settings: Colon HCT-116, 10 µM single dose
# Method in brief: as §1
# HCT-15 = settings: Colon HCT-15, 10 µM single dose
# Method in brief: as §1
# HL-60(TB) = settings: Leukemia HL-60(TB), 10 µM single dose
# Method in brief: as §1
# IGROV1 = settings: Ovarian IGROV1, 10 µM single dose
# Method in brief: as §1
# K-562 = settings: Leukemia K-562, 10 µM single dose
# Method in brief: as §1
# KM12 = settings: Colon KM12, 10 µM single dose
# Method in brief: (§3)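 In vitro antiproliferative testing: NCI-60 panel, initial single dose 10 μM, inhibition % derived from percent growth of treated versus untreated control cells.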
# LOX IMVI = settings: Melanoma LOX IMVI, 10 µM single dose
# Method in brief: as §1
# M14 = settings: Melanoma M14, 10 µM single dose
# Method in brief: as §1
# MCF7 = settings: Breast MCF7, 10 µM single dose
# Method in brief: as §3
# MDA-MB-231/ATCC = settings: Breast MDA-MB-231/ATCC, 10 µM single dose
# Method in brief: as §1
# MDA-MB-468 = settings: Breast MDA-MB-468, 10 µM single dose
# Method in brief: as §3
# NCI-H23 = settings: NSCLC NCI-H23, 10 µM single dose
# Method in brief: as §3
# NCI-H460 = settings: NSCLC NCI-H460, 10 µM single dose
# Method in brief: as §1
# NCI-H522 = settings: for Growth Percent: NSCLC NCI-H522, 10 µM single dose
# Method in brief: as §2
# NCI/ADR-RES = settings: Ovarian NCI/ADR-RES, 10 µM single dose
# Method in brief: as §1
# OVCAR-3 = settings: Ovarian OVCAR-3, 10 µM single dose
# Method in brief: as §1
# OVCAR-4 = settings: Ovarian OVCAR-4, 10 µM single dose
# Method in brief: as §1
# OVCAR-5 = settings: Ovarian OVCAR-5, 10 µM single dose
# Method in brief: as §1
# RPMI-8226 = settings: Leukemia RPMI-8226, 10 µM single dose
# Method in brief: as §1
# RXF 393 = settings: Renal RXF 393, 10 µM single dose
# Method in brief: as §1
# SF-268 = settings: CNS SF-268, 10 µM single dose
# Method in brief: as §3
# SF-539 = settings: CNS SF-539, 10 µM single dose
# Method in brief: as §3
# SK-MEL-28 = settings: Melanoma SK-MEL-28, 10 µM single dose
# Method in brief: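 One concentration (10 μM) applied to each line of the full NCI-60 panel; percent growth compared against untreated cells.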
# SK-MEL-2 = settings: Melanoma SK-MEL-2, 10 µM single dose
# Method in brief: (§4)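 Compounds were tested at a single dose of 10 μM across the full NCI-60 cell line panel. Growth was expressed as percent growth relative to untreated control cells, reported as percent inhibition.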
# SK-MEL-5 = settings: Melanoma SK-MEL-5, 10 µM single dose
# Method in brief: as §1
# SNB-19 = settings: CNS SNB-19, 10 µM single dose
# Method in brief: as §4
# SNB-75 = settings: for Growth Percent: CNS SNB-75, 10 µM single dose
# Method in brief: as §2
# U251 = settings: CNS U251, 10 µM single dose
# Method in brief: as §2
SMILES,Growth Percent (786-0),Growth Percent (ACHN),Growth Percent (BT-549),Growth Percent (CAKI-1),Growth Percent (CCRF-CEM),Growth Percent (COLO 205),Growth Percent (DU-145),Growth Percent (EKVX),Growth Percent (HCC-2998),Growth Percent (HCT-116),Growth Percent (HCT-15),Growth Percent (HL-60(TB)),Growth Percent (IGROV1),Growth Percent (K-562),Growth Percent (KM12),Growth Percent (LOX IMVI),Growth Percent (M14),Growth Percent (MCF7),Growth Percent (MDA-MB-231/ATCC),Growth Percent (MDA-MB-468),further results
"Cc1c(C(=O)NO)sc2ncnc(Nc3ccccc3)c12 [Compound 15b, N-hydroxy-5-methyl-4-(phenylamino)thieno[2,3-d]pyrimidine-6-carboxamide]",98.6% and 98.65%,95.0% and 95.07%,112.4% and 112.44%,77.6% and 77.61%,98.7% and 98.78%,115.6% and 115.62%,100.1% and 100.13%,92.7% and 92.76%,99.9% and 99.98%,102.9%,91.3% and 91.34%,103.0% and 103.03%,87.7%,94.9% and 94.99%,102.0% and 102.03%,96.0% and 96.03%,100.4% and 100.48%,87.2% and 87.27%,100.3% and 100.34%,80.8%,Growth Percent (NCI-H23): 90.5% and 90.51%; Growth Percent (NCI-H460): 101.6% and 101.66%; Growth Percent (NCI-H522): 86.6% and 86.62%; Growth Percent (NCI/ADR-RES): 96.1% and 96.17%; Growth Percent (OVCAR-3): 96.9% and 96.92%; Growth Percent (OVCAR-4): 94.7% and 94.72%; Growth Percent (OVCAR-5): 98.4% and 98.41%; Growth Percent (RPMI-8226): 106.0% and 106.04%; Growth Percent (RXF 393): 97.2% and 97.22%; Growth Percent (SF-268): 91.8% and 91.83%; Growth Percent (SF-539): 92.8% and 92.86%; Growth Percent (SK-MEL-28): 100.9% and 100.91%; Growth Percent (SK-MEL-2): 109.3% and 109.33%; Growth Percent (SK-MEL-5): 99.0% and 99.02%; Growth Percent (SNB-19): 93.0% and 93.06%; Growth Percent (SNB-75): 74.2% and 74.29%; Growth Percent (U251): 90.0% and 90.06%
"Cc1c(C(=O)NO)sc2ncnc(Nc3ccc(Cl)cc3)c12 [Compound 15c, 4–(4-chlorophenylamino)-N-hydroxy-5-methylthieno[2,3-d]pyrimidine-6-carboxamide]",108.7% and 108.78%,97.3% and 97.37%,116.4% and 116.44%,86.4% and 86.45%,103.4% and 103.44%,116.7% and 116.75%,108.8% and 108.86%,79.4% and 79.43%,115.4% and 115.42%,100.9% and 100.92%,101.7% and 101.72%,104.9% and 104.93%,72.7% and 72.73%,105.0%,100.9% and 100.92%,95.8% and 95.88%,107.8% and 107.86%,88.6%,88.1% and 88.18%,102.9% and 102.91%,"inhibition at 10 µM (EKVX; Homo sapiens, 10 μM): 20.6%; Growth Percent (NCI-H23): 91.8% and 91.83%; Growth Percent (NCI-H460): 98.9% and 98.93%; inhibition at 10 µM (NCI-H522; Homo sapiens, NSCLC NCI-H522, 10 μM): 25.4%; Growth Percent (NCI-H522): 74.5% and 74.57%; Growth Percent (NCI/ADR-RES): 102.1% and 102.16%; Growth Percent (OVCAR-3): 98.9% and 98.94%; Growth Percent (OVCAR-4): 106.3% and 106.34%; Growth Percent (OVCAR-5): 107.6% and 107.61%; Growth Percent (RPMI-8226): 104.3% and 104.38%; Growth Percent (RXF 393): 106.7% and 106.75%; Growth Percent (SF-268): 94.8% and 94.84%; Growth Percent (SF-539): 104.0%; Growth Percent (SK-MEL-28): 110.6% and 110.64%; Growth Percent (SK-MEL-2): 94.5% and 94.54%; Growth Percent (SK-MEL-5): 96.9% and 96.96%; Growth Percent (SNB-19): 94.8% and 94.85%; Growth Percent (SNB-75): 79.5% and 79.59%; inhibition at 10 µM (SNB-75; Homo sapiens, CNS SNB-75, 10 μM): 20.4%; Growth Percent (U251): 100.9% and 100.96%"

# — article PMC8253220, “Molecular design, synthesis and in vitro biological evaluation of thienopyrimidine–hydroxamic acids as chimeric kinase HDAC inhibitors: a challenging approach to combat cancer” (Journal of Enzyme Inhibition and Medicinal Chemistry, 2021)
